Experimental data published in patent publication US8946423B2, “Highly soluble salt of pyrroloquinoline quinone and method for producing the same” (Mitsubishi Gas Chemical Company, Inc., priority 2010, dated 2015).

Assay: Dissolution test: salts dissolved up to saturation, solubility determined by absorbance at 450 nm
Settings: for solubility of pyrroloquinoline, mmol/L / solubility of pyrroloquinoline: saturation at room temperature of 23 to 28° C.; for Relative Ratio (solubility): relative to Disodium Salt of PQQ in water = 1
Protocol: The disodium salt of PQQ obtained by the method as described in Example 1 was used.
These salts were dissolved up to saturation at room temperature of 23 to 28° C., and these solutions each were diluted by 20 times or 400 times with a phosphate buffer having a pH of 7.5. For the diluted solutions each, an analysis of the ultraviolet-visible absorption spectra was carried out using a HITACHI U-2000 spectrometer.

Compound | solubility in ethanol (in words) | solubility of pyrroloquinoline, mmol/L (Solvent Ethanol) | solubility of pyrroloquinoline, mmol/L (Solvent Water) | Relative Ratio (solubility) (Solvent Ethanol) | solubility of pyrroloquinoline (Solvent Ethanol) [mM] | Relative Ratio (solubility) (Solvent Water) | solubility of pyrroloquinoline (Solvent Water) [mM]
O=C([O-])c1cc(C(=O)[O-])c2c(n1)C(=O)C(=O)c1cc(C(=O)O)[nH]c1-2.[Na+].[Na+] [Disodium Salt of PQQ, reference compound] | almost insoluble | – | – | – | – | – | –
C[N+](C)(C)CCO.C[N+](C)(C)CCO.C[N+](C)(C)CCO.O=C(O)c1cc(C(=O)O)c2c(n1)C(=O)C(=O)c1cc(C(=O)O)[nH]c1-2 [Tricholine Salt of PQQ] | – | ≥ 171 or mmol/L | ≥ 171 or mmol/L | – | – | – | –
Dicholine Salt of PQQ | – | – | – | 13.9 | 111 | 11.8 | 94
Monocholine Salt of PQQ | – | – | – | 0.06 | 0.52 | 0.24 | 1.94
